Reference: patent US20230321083A1, “Inhibitors of GPR174 and Uses Thereof” (Omeros Corporation, priority 2016, published 2023)

What was measured:
Type in all cases: cell-based
GPR174 [1] = biological target: T1, GPR174 (Homo sapiens, UniProt Q9BXC1); test: Cellular Redistribution Assay (CRA) against GPR174; design: fused on or other part: No tag or reporter is given; details: FIG. 5A
Text: One method for identifying compounds capable of modulating a receptor is using a cellular redistribution assay (“CRA”). Exemplary CRA methods are found in U.S. Pat. No. 7,309,576 issued to O'Dowd et al. and in O'Dowd et al., J. Biomol. Screen. 12:175-85, 2007. […] Incorporation of the NLS alters the cellular localization of the GPCR, such that the majority of the NLS-modified receptor is present in the cell interior. An NLS-modified GPCR, when interacting with a functionally active compound, is mostly localized on the cell surface. Thus, it becomes possible to identify receptor modulators without knowledge of the endogenous ligand or a surrogate ligand.
The inventors have identified a number of compounds that inhibit GPR174 using a CRA assay similar to that described in U.S. Pat. No. 7,309,576 and in O'Dowd et al., J. Biomol. Screen. 12:175-85, 2007. These compounds are described in detail below.
(§1) The inventors used a CRA similar to that described in U.S. Pat. No. 7,309,576 and O'Dowd et al., J. Biomol. Screen. 12:175-85, 2007 to identify compounds that are capable of interacting with GPR174 using a library of approximately 370,000 chemical entities. Briefly described, the CRA assay described in U.S. Pat. No. 7,309,576 involves artificially inserting a NLS into the dopamine D1 receptor (DRD1), which allows the receptor to traffic from the cell membrane to the cell interior, and that the binding of antagonists to the receptor retained the receptor at the cell surface, while removal of the ligand allowed the receptor to continue to internalize from the cell surface. Both antagonists and agonists that selectively bound the receptor retained the receptor on the plasma membrane. GPR174 constructs were generated for use in a CRA-based compound screening assay. From this screen, the inventors initially identified compounds of formula I-VI, as described herein and included in TABLE 1.
Target sequence in this assay (Q9BXC1 1-290 limits assumed): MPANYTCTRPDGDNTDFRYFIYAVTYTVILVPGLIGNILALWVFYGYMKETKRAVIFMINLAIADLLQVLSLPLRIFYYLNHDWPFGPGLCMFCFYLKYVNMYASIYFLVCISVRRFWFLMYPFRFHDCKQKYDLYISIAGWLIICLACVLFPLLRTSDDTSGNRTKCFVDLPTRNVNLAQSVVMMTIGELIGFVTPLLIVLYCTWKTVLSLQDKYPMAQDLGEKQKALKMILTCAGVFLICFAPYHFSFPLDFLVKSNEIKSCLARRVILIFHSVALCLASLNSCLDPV

ADBR2 [2] = biological target: T2, ADBR2 (Homo sapiens, UniProt P07550); test: CRE-Luc reporter Gs signaling assay, control receptor ADBR2
T2 construct: host or cells: HEK293 or CHO cell lines (ATCC)
Experimental: (§2) Compounds were tested in the reporter system with increasing concentrations of GPR174-interacting compounds. GPR174 construct pCMV6-XL4-GPR174 or ADBR2, reporter of interest, pCRE-Luc or GL4.29 (3000 ng), and TK-renilla as an internal control (10 ng) with lipofectamine 2000 (60 ug) (Invitrogen, CA) according to the manufacturer's directions.
(§3) The DNA/lipofectamine 2000 mix (3000 μL) was incubated at room temperature for 30 minutes and then added into a 10 cm culture dish (Corning, NY) containing 70-90% confluent cultured cells, typically HEK293 or CHO cell lines (ATCC, VA), in 15 mL of media. The cells were further incubated for 4-6 hours at 37° C. and then media were removed and cells were detached with 2 mL trypsin (Life Technologies, CA). Media (26 mL) were added to the detached cells and 120 μL of transfected cells were transferred to each well on a 96-well plate. Increasing concentration of each compound in DMSO (1.2 μl) was added to the cells after plating into the 96-well plate. The cells were further incubated at 37° C. for various times. The media were removed and the cells lysed. Luciferase and renilla activities were measured with the Dual-luciferase assay system (Promega, WI) according to the manufacturer's directions. Typically, lysis buffer (25 μL) was added to the cells and incubated at room temperature for 20-30 minutes to allow for the cells to lyse. The lysate (10 μL) was measured for luciferase and renilla activity with LARII and Stop&Glo reagent (50 μL each) with a SpectraMax L (Molecular Devices, CA). Data were analyzed with either Excel (Microsoft, WA) or Prism 4.03 (GraphPad, CA).
(§4) ADBR2 is a GPCR, like GPR174, that activates the Gs signaling pathway.

CHRM1 = test: Cellular Redistribution Assay (CRA) against CHRM1; details: FIG. 5B
Text: as §1
The inventors also sought to validate that the compounds identified using the CRA are modulatory compounds. To this end, the above-described CRA was used to screen a library for compounds that interact with three control non-orphan receptors, and the results of this screen were compared to the results of screening the same library for compound that were identified using a Fluorometric Imaging Plate Reader (FLIPR) assay, a conventional technique commonly used to identify compounds interacting with non-orphan GPCRs signaling through Ca+. Three non-orphan GPCRs—Muscarinic acetylcholine receptor M1 (CHRM1), Adrenergic receptor alpha 1a (ADRA1a), and Neuropeptide S receptor (NPSR)—were screened against a 10,000-compound GPCR-focused library. Thirty interacting compound “hits” were identified using the CRA, and eighty-one hits were identified using the FLIPR for the CHRM1 receptor; 9 CRA hits and 29 FLIPR hits for the NPS receptor were identified; and 110 CRA hits and 110 FLIPR hits for ADRA1a.
In addition, the CRA can also provide the relative potencies of compounds against the target receptor.

GPR174 [3] = biological target: T1, GPR174; test: CRE-Luc reporter Gs signaling assay, cells transfected with GPR174; design: host or cells: HEK293 or CHO cell lines (ATCC); details: for effect on Gs pathway in the presence of GPR174: CRE-Luc reporter
Experimental: as §2, §3, §4
Target sequence in this assay (Q9BXC1 whole entry, the tested form may be a part): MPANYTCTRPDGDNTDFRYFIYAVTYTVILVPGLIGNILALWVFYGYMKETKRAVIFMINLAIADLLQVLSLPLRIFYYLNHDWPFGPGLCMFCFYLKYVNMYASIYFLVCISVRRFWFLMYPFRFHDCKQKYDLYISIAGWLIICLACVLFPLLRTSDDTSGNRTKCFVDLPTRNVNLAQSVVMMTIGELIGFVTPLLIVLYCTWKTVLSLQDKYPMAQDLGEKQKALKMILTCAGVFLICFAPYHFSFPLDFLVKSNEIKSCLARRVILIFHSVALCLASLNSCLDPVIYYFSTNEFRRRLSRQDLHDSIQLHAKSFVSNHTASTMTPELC

GPR174 [4] = biological target: T1, GPR174; test: GloSensor assay, GPR174, with or without LysoPS; design: host or cells: HEK293 or CHO cell lines (ATCC)
Experimental: (§5) In order to confirm that GPR174 interacting compound #4 is an antagonist of GPR174-mediated Gs signaling, a GloSensor assay was carried out with increasing concentrations of compound #4 in the presence or absence of a fixed concentration (1 μM) of the GPR174 agonist LysoPS as follows.
(§6) The GloSensor Assay was performed by transiently transfecting the GPR174 construct, pCMV6-XL4-GPR174 or ADBR2, pGlo22 (300 ng) (Promega) with lipofectamine 2000 (60 μg) (Invitrogen, CA) according to the manufacturer's directions. The DNA/lipofectamine 2000 mix (3000 μL) was incubated at room temperature for 30 minutes and then added into a 10 cm culture dish (Corning, NY) containing 70-90% confluent cultured cells, typically HEK293 or CHO cell lines (ATCC, VA), in 15 mL of media. […] The cells were then incubated at room temperature for 2 hours and the cell plates were pre-read with a SpectraMax L (Molecular Devices, CA). After the pre-read, increasing concentrations of each compound in DMSO (1.0 μl) was added to the cells. The cell plates containing the compound were read immediately after the compound was added and at various times up to 30 minutes after the addition of the compound with a SpectraMax L (Molecular Devices, CA). Data were analyzed with either Excel (Microsoft, WA) or Prism 4.03 (GraphPad, CA).
Target sequence in this assay (Q9BXC1 whole entry, species assumed, the tested form may be a part): as the sequence (Q9BXC1 whole entry, the tested form may be a part) above

ADBR2 [5] = biological target: T2, ADBR2; test: GloSensor assay, ADBR2 control
Experimental: as §5, §6

Row | effect on Gs pathway in the presence of ADBR2 (ADBR2 [2]) | effect on Gs pathway in the presence of GPR174 (GPR174 [3]) | modulation of Gs pathway in the presence of GPR174 (GloSensor) (GPR174 [4]; compound alone) | Human GPR174 CRE Activity: nature of compound (GPR174 [3]) | nature of compound in GPR174 signaling assay (GPR174 [3]; human GPR174 with pCRE-Luc) | Compound | dose-response in CRA against GPR174 (GPR174 [1]) | activity in CRA against CHRM1 (CHRM1) | competition with GPR174 agonist LysoPS (GloSensor) (GPR174 [4]; fixed 1 μM LysoPS) | modulation of Gs signaling in the presence of ADBR (GloSensor) (ADBR2 [5])
1 | did not inhibit the Gs pathway | inhibited the Gs pathway | – | – | – | CC(=O)N1CCN(c2cc(N3CCCCC3)c(F)cc2[N+](=O)[O-])CC1 [Compound 2] | show a dose-response curve against GPR174 | do not show any activity against CHRM1 | – | –
2 | did not modulate the Gs pathway | did not modulate the Gs pathway | does not modulate the Gs pathway | Antagonist | GPR174 antagonist | CCCC(=O)c1ccc(N2CCN(S(=O)(=O)c3ccc(C)cc3)CC2)c(F)c1 [Compound 4] | show a dose-response curve against GPR174 | do not show any activity against CHRM1 | does compete with the GPR174 agonist LysoPS | neither compound #4 nor LysoPS modulate Gs signaling
3 | – | – | – | – | – | lysophosphatidylserine [LysoPS, reference compound] | – | – | – | neither compound #4 nor LysoPS modulate Gs signaling
